The values that follow come from US20250134790A1, “ANTIMICROBIAL COMPOSITIONS” (Firmenich SA, priority 2021, published 2025).

Like-named read-outs stand apart in the source and are kept apart here.

The test system of the assay is Escherichia coli ATCC 10536. In words: Robotic bacteria contact time (BCT) test of perfume ingredients in surfactant bases (EN-1276 based). In kind it is cell-based. The settings on record: contact time 45 seconds; for log reduction at 0.5 % / log reduction at 1 %: Escherichia coli, ATCC10536, 45 s; for log reduction at 0.5 %: surfactant base A, perfume ingredient 0.5 % wt; for log reduction at 1 % / Log reduction: surfactant base B, perfume ingredient 1% wt. How it is done:
a. Preparation of Test Samples
Test samples were prepared by mixing perfume ingredients with the surfactant bases and vigorously stirred for 24 hrs. Samples with transparent appearance were selected for antimicrobial testing.
b. Measurement of Antimicrobial Efficacy of Fragrance Materials in Surfactant Systems
Preparation of screening plate and dilution plate: Aliquots (270 μl) of compositions were dispensed into the wells of a 96-well microtiter plate (MTP) along two columns (B1-H1, and B7-H7), and 270 μl of MilliQ water was added to well A1 and A7 as the control samples. This MTP was labelled as the “Screening plate”. In another MTP, labelled as the “Dilution plate”, 270 μL of Dey-Engley (D/E) neutralizing solution was added to column 1 and column 7. 270 μl of tryptone diluent solution was added to columns 2-6 and columns 8-12 of the Dilution MTP by a Hamilton robotic liquid handling station.
BCT test & neutralization & dilution: Bacterial stock (30 μl) was then added to columns 1 of the ‘Screening plate’ and mixed by a Hamilton robotic liquid handling station. After a contact time of 45 seconds, 30 μl of the mixtures in column 1 were transferred into the corresponding wells of column 1 of the ‘Dilution plate’. After neutralizing for 5 minutes in the D/E neutralizing solution, 30 μl of the neutralized mixtures were transferred from column 1 to column 2 of the Dilution MTP and mixed, followed by transferring 30μl of the mixtures from column 2 into column 3. This process was repeated serially diluting the bacteria suspensions across the plate to column 6. Bacterial stock (30 μl) was then added to columns 7 of the ‘Screening plate’ and mixed by a Hamilton robotic liquid handling station. After a contact time of 45 seconds, 30 μl of the mixtures in column 7 were transferred into the corresponding wells of column 7 of the ‘Dilution plate’. After neutralizing for 5 minutes in the D/E neutralizing solution, 30 μl of the mixtures were transferred from column 7 to column 8 of the Dilution MTP and mixed, followed by transferring further 30μl mixtures from column 8 into column 9. This process was repeated serially diluting the bacteria suspensions across the plate to column 12.
Plating: 30 μl volumes from each well in the Dilution MTP were transferred onto four Tryptone Soya Agar (TSA) plates. The TSA plates were allowed to stand for about two hours so that the 30 μl inocula spots could dry and the plates were then inverted and incubated overnight at 37° C. for 24 hours. After incubation, colonies were counted.
Calculating log reduction: Select the dilutions with colony counts, and calculate the viable cell counts (CFU/mL) of mixture in ‘Screening plate’, and log reduction against the control MilliQ sample was calculated.

Setting [1] is: sodium cumene sulfonate (SCS) 3.00 % wt.
[2] abbreviates: no SCS (/), read-out: Log reduction.
Setting [3] is: sodium cumene sulfonate (SCS) 3.00 % wt, read-out: Log reduction.
Setting [4] is: sodium salicylate 3.00, read-out: Log reduction.

For the compound `CCCCCCCC1CCC(=O)O1` (centres unmarked) [5-heptyldihydro-2(3H)-furanone], the log reduction at 0.5 % came out at 1.3. The same compound came in with a log reduction at 1 % (no SCS (/)) of -0.2. This compound registered a log reduction at 1 % under setting [1] of 4.9. Moreover, the log reduction at 1 % (sodium salicylate 3.00) was over 5.
Turning to `CC(=O)OCCC1CCCCC1` [2-cyclohexylethyl acetate], the log reduction at 1 % is 0 under setting [2], over 5 under setting [3] and over 5 under setting [4].
In the case of `CCCC=C1OC(=O)c2ccccc21` [3-butylidene-1-benzo[C] furanone], the log reduction at 1 % runs as follows: (no SCS (/)) 0.2; under setting [1], over 5. Besides, the Log reduction result (sodium salicylate 3.00) is reported as “Insoluble”.
For the compound `CCCCCCCC=O` [Octanal, octanal], the Log reduction result runs as follows: (no SCS (/)) “Insoluble”; under setting [1], “Insoluble”; (sodium salicylate 3.00) “Insoluble”.
Regarding `CC(=CC=O)CCC(C)=C(C)C` [3,6,7-trimethyl-2,6-octadienal], the log reduction at 1 % is, setting by setting: under setting [2], 3.3; under setting [3], over 5. Further, the Log reduction result (sodium salicylate 3.00) is on record as “Insoluble”.
On to `C=CC(C)(O)CCCC(C)C` (centres unmarked) [3,7-dimethyl-1-octen-3-ol], for which the log reduction at 1 % runs as follows: under setting [2], -0.1; under setting [3], over 5; under setting [4], over 5.
In the case of `C/C=C\C(C)(O)CCC=C(C)C` (centres unmarked) [(2Z)-4,8-dimethyl-2,7-nonadien-4-ol], the log reduction at 1 % reads like this: under setting [2], -0.1; under setting [3], over 5; under setting [4], over 5.
`CC(C)=CCCC(C)CCO` (centres unmarked) [3,7-dimethyl-6-octen-1-ol]: the log reduction at 0.5 % (read-out: Log reduction) came to 2.8. Besides, the Log reduction result is “Insoluble” (no SCS (/)), “Insoluble” under setting [1] and “Insoluble” (sodium salicylate 3.00).
Consider “cyclopropylmethyl (3Z)-3-hexenoate OR cyclopropylmethyl (3E)-3-hexenoate”, for which the Log reduction reads like this: (no SCS (/)) 0.1; under setting [1], over 5; (sodium salicylate 3.00) over 5.
For the compound `CC(C)=CCCC(C)CC#N` (centres unmarked) [3,7-dimethyl-6-octenenitrile], the log reduction at 1 % is, setting by setting: under setting [2], 0.1; under setting [3], over 5; under setting [4], over 5.
